Assay results from patent US11104965B2, “Methods for the diagnosis and treatment of inflammatory bowel disease” (priority 2013, dated 2021).

What was measured:
[1] = test system: Atopobium-induced colitis in II10−/− mice; assay: Atopobium-induced colitis in II10-/- mice under SPF conditions, treated or not with bismuth (colonoscopy, blinded histological inflammation score); type: in vivo, mouse; conditions: A. parvulum-associated II10-/- mice, 6 weeks
Text: (§1) To test the causative role of H2S-producing microbes in colitis, we assessed whether an H2S scavenger (bismuth) could alleviate Atopobium-induced colitis in II10^−/− mice. […] It should be noted that the intestines of IBD patients also display a similar increased number of lymphoid follicles^15. […] Increased GALT foci in Atopobium-associated mice could lead to an aberrant expression of lymphoid adhesion molecules and unwanted T cell activation towards commensal microbes. To assess the role of these commensal microbes in colitis development, germ-free mice were mono-associated with A. parvulum and kept under gnotobiotic conditions.
Colonic mucosal lavages and/or mucosal biopsies were collected from 157 pediatric subjects (84 Crohn's Disease, 20 Ulcerative Colitis, and 53 controls). […] Reads were quality filtered and QIIME ^23 was used to assign reads into operational taxonomic units (OTUs) against the Greengenes reference set. […] The generated raw data was processed and analyzed by MaxQuant against the decoy Uniport-human database with the protein-group file imported into Persus for statistical analysis. […] The transcript levels of TST, SQRDL and COX4-1 were quantified by RT-qPCR. […] Mouse colonoscopies were performed and histological inflammation was blindly scored as previously described ^25. Mice mucosal cytokines (Cxcl1, II12p40, II1β and II17a) were quantified by RT-qPCR. […]

[2] = test system: GALT foci of II10−/− mice; assay: Number of GALT foci in II10-/- mice associated with A. parvulum, SPF conditions; type: in vivo, mouse; conditions: Atopobium-associated II10-/- mice under SPF conditions; FIG. 4C
Protocol: (§2) Statistical significance was assessed using a Kruskal-Wallis test with a Dunn's post hoc test.
as §1
(§3) To investigate involvement of complex biota and H2S in the development of colitis, we performed two subsequent experiments using 129/SvEv II-10^−/− mice. […] Mice were euthanized after 6 weeks of mono-association. […] Mice were fed with this diet starting 1 week before the colonization with A. parvulum. […] Mice were euthanized after 6 weeks of weekly infection with A. parvulum. […]
(§4) All animal protocols were approved by the Institutional Animal Care and Use Committee of the University of North Carolina at Chapel Hill. […] Histological images were acquired using a DP71 camera and DP Controller 3.1.1.276 (Olympus), and intestinal inflammation was scored as previously described^12. […]

[3] = test system: GALT foci of II10−/− mice; assay: Number of GALT foci in II10-/- mice mono-associated with A. parvulum, gnotobiotic conditions; type: in vivo, mouse; conditions: germ-free II10-/- mice mono-associated with A. parvulum, FIG. 4C
Protocol: as §2, §1, §3, §4

A. parvulum = A. parvulum colonization level in stool of mono-associated II10-/- mice by real-time qPCR; type: in vivo, Atopobium parvulum; conditions: 6 weeks, P=0.0001, FIG. 12B
Protocol: Statistical significance was assessed using a Mann-Whitney U-test.
as §1
To investigate involvement of complex biota and H2S in the development of colitis, we performed two subsequent experiments using 129/SvEv II-10^−/− mice. […] Mice were euthanized after 6 weeks of mono-association. […] Mice were fed with this diet starting 1 week before the colonization with A. parvulum. […] Mice were euthanized after 6 weeks of weekly infection with A. parvulum. […] Mice were fed with this diet starting 1 week before the colonization with A. parvulum.

[4] = test system: gut microbiota of II10−/− mice; assay: Gut microbiota composition of SPF and Atopobium-associated II10-/- mice, treated or not with bismuth (PCA, Table 6); type: in vivo, mouse
Text: To assess the role of these commensal microbes in colitis development, germ-free mice were mono-associated with A. parvulum and kept under gnotobiotic conditions. […] FIG. 12B). […] GF+bismuth (III) subsalicylate (n=10); 3: […] A. parvulum+bismuth (III) subsalicylate (n=11). Mice were euthanized after 6 weeks of mono-association. […] Mice were fed with this diet starting 1 week before the colonization with A. parvulum. […] SPF+bismuth (III) subsalicylate (n=8); 3: […] A. parvulum+bismuth (III) subsalicylate (n=8). Mice were euthanized after 6 weeks of weekly infection with A. parvulum. […] Mice were fed with this diet starting 1 week before the colonization with A. parvulum.

O=C([O-])c1ccccc1[O-].[Bi+3].[OH-] [bismuth, Bismuth (III) subsalicylate]
inflammatory score ([1]; bismuth 7 g/kg in chow, P=0.007, FIG. 4B): decrease inflammatory score
colitis as evidenced by colonoscopy visualization ([1]; bismuth (III) subsalicylate 7 g/kg in chow, FIG. 4A): prevented colitis
GALT formation (number of GALT foci) [2]: did not prevent GALT formation
GALT neogenesis [3]: prevented GALT neogenesis
A. parvulum colonization level (16S rDNA gene copies per mg of stool) (A. parvulum): reduced colonization level
microbiota of Atopobium-associated mice, abundance of butyrate-producers ([4]; Atopobium-associated II10-/- mice, SPF): restores the microbiota of these mice toward a healthier community
microbiota composition ([4]; SPF and Atopobium-associated II10-/- mice, Table 6): altered the microbiota composition
